In patent US9695144B2, “Dibenzazepine derivatives and use thereof” (Purdue Pharma L.P., priority 2013, dated 2017):
Where two headings read alike, the source gives them in different places.

Experiments:
[1] = biological target: human Nav1.7 (Homo sapiens, UniProt Q15858); experiment: FLIPR or FLIPR TETRA sodium dye assay for sodium channel blocking activity; assay type: cell-based
[2] = biological target: T1, hNav1.7 (Homo sapiens, UniProt Q15858); conditions: read-out: Nav1.7 Activity (μM) EP assay Ki; affinity for the inactivated state of the channel; hNav1.7 HEK-293 cells
[3] = biological target: T1, hNav1.7; experiment: cell-based
[4] = biological target: Nav1.3 (Homo sapiens, UniProt Q9NY46); conditions: read-out: TTX IC50; cited from earlier work
[5] = biological target: Nav1.6 (Homo sapiens, UniProt Q9UQD0); conditions: read-out: TTX IC50; cited from earlier work
[6] = biological target: Nav1.8 (Homo sapiens, UniProt Q9Y5Y9); conditions: read-out: TTX IC50; cited from earlier work
[7] = biological target: Nav1.9 (Homo sapiens, UniProt Q9UI33); conditions: read-out: TTX IC50; cited from earlier work
[8] = biological target: Nav1.1 (Homo sapiens, UniProt P35498); conditions: read-out: TTX IC50; cited from earlier work
[9] = biological target: Nav1.2 (Homo sapiens, UniProt Q99250); conditions: read-out: TTX IC50; cited from earlier work
[10] = read-out: Nav1.7 Activity (μM) FLIPR assay IC50
[11] = recombinant HEK293 cells expressing human Nav1.7 alpha subunit, veratridine and scorpion venom as agonists, read-out: Nav1.7 Activity (μM) FLIPR assay IC50

T1 sequence (Q15858 1-1977 isoform Q15858-3): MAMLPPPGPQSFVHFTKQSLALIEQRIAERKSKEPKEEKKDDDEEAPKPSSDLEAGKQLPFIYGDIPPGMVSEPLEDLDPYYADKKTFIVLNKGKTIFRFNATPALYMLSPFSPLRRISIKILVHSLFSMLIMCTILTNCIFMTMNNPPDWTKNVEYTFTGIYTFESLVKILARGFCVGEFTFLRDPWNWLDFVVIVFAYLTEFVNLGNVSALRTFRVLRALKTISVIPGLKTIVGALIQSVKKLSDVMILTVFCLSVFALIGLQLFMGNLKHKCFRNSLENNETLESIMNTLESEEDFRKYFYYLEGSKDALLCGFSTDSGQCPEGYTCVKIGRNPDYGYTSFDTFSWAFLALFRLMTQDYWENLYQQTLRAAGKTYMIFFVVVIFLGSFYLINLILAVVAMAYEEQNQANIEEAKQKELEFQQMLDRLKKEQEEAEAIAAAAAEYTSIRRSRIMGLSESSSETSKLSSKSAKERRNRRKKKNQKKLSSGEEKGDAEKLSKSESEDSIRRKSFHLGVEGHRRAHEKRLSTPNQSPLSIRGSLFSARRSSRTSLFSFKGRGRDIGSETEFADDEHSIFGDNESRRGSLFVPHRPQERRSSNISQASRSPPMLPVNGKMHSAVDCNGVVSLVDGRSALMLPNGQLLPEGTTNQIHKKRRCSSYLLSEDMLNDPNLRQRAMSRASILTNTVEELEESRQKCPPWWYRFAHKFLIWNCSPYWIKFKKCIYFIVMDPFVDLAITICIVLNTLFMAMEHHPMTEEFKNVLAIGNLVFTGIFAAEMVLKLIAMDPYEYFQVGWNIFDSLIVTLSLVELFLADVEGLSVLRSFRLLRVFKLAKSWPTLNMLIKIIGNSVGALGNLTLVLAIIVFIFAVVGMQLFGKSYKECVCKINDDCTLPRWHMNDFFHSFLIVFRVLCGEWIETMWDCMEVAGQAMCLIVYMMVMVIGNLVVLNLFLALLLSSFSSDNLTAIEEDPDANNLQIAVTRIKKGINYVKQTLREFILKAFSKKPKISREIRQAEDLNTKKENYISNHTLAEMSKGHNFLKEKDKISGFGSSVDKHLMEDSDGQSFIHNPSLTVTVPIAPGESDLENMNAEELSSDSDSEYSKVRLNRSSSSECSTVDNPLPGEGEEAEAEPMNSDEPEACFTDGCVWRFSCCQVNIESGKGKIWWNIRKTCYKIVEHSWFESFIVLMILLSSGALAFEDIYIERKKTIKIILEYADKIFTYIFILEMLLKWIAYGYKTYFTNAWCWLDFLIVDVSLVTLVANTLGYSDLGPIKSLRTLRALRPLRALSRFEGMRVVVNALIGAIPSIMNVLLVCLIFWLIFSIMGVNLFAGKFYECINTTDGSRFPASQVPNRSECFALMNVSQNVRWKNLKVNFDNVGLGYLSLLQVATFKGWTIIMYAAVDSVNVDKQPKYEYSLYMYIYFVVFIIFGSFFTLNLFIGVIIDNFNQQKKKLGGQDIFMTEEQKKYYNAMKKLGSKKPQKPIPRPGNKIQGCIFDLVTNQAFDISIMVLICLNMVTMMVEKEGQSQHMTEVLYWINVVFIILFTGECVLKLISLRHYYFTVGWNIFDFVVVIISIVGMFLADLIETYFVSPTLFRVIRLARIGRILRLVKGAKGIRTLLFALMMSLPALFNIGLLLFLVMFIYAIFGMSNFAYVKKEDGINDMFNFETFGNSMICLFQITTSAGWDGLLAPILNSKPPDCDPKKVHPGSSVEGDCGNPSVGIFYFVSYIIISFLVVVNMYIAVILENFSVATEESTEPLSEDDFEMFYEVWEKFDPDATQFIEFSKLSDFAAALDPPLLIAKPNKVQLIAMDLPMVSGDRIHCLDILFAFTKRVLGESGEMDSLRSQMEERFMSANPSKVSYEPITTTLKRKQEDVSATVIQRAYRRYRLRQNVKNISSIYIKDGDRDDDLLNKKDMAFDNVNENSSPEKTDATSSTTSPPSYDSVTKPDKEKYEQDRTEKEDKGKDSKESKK
human Nav1.7, sequence (Q15858 1-1977 isoform Q15858-3): as above
Nav1.8, sequence (Q9Y5Y9 whole entry, looked up): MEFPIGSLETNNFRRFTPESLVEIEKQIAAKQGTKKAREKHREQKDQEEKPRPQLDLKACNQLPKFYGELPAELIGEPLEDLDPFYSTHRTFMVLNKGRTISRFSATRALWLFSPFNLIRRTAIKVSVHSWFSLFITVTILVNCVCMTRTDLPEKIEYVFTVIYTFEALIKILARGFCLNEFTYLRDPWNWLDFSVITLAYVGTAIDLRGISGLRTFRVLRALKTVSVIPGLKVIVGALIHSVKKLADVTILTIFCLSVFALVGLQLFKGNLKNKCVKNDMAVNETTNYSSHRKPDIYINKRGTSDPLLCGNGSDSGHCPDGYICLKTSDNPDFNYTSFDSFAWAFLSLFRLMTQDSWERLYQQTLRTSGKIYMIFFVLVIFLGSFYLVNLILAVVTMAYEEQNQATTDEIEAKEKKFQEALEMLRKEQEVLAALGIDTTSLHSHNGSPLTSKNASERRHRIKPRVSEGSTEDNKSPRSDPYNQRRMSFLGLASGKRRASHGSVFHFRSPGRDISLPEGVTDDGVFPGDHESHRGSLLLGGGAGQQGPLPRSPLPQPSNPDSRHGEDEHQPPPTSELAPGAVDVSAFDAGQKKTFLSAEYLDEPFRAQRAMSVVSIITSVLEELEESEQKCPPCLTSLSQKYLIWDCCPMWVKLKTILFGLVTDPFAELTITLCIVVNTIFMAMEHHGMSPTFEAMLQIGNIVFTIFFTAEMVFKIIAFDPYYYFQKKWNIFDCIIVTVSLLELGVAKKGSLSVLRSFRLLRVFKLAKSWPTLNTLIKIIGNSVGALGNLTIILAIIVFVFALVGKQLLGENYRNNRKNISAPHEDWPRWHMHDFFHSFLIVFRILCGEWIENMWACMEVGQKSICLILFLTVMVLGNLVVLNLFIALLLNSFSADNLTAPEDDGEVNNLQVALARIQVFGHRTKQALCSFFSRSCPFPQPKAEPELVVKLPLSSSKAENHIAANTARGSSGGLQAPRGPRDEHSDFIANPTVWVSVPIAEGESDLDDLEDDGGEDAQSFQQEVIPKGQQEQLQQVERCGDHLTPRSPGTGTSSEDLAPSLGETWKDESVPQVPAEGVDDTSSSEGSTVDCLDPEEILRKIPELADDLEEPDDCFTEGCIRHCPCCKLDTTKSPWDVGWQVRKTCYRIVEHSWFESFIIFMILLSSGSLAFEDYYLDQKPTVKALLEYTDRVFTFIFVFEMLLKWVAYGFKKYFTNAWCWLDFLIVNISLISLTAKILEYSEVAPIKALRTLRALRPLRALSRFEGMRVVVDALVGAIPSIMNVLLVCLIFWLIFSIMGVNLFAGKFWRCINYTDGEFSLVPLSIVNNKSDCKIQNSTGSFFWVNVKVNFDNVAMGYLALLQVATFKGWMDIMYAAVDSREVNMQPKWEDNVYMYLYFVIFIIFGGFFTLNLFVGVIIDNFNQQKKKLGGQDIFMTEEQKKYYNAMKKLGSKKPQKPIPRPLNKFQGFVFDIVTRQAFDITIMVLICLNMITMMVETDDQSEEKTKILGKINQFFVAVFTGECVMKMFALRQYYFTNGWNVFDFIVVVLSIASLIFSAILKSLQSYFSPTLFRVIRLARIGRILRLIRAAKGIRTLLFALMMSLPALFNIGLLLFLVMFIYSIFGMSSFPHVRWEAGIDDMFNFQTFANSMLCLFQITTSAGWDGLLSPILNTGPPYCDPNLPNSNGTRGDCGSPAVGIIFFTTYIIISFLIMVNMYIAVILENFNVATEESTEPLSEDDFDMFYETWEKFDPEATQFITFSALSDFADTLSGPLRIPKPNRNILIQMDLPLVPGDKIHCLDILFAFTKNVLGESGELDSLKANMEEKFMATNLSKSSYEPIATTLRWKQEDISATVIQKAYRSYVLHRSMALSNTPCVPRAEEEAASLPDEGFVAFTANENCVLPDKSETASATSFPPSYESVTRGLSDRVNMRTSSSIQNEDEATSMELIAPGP

## CN1c2ccc(Cl)cc2CCc2cc(-c3cccc(C(N)=O)n3)ccc21 [Compound 39, 6-(8-chloro-5-methyl-10,11-dihydro-5H-dibenzo[b,f]azepin-2-yl)picolinamide]
[1]; [10]
  IC50: 0.842 ± 0.04 µM

## NC(=O)c1cccc(-c2ccc3c(c2)CCc2cc(Cl)ccc2N3)n1 [Compound 40, 6-(8-chloro-10,11-dihydro-5H-dibenzo[b,f]azepin-2-yl)picolinamide]
[1]; [10]
  IC50: 1.96 ± 0.036 µM
[2]
  Ki: 0.648 ± 0.123 µM

## CCN1c2ccc(Cl)cc2CCc2cc(-c3cccc(C(N)=O)n3)ccc21 [Compound 41, 6-(8-chloro-5-ethyl-10,11-dihydro-5H-dibenzo[b,f]azepin-2-yl)picolinamide]
[1]
  IC50: > 20 µM

## CC(=O)N1c2ccc(Cl)cc2CCc2cc(-c3cccc(C(N)=O)n3)ccc21 [Compound 42, 6-(5-acetyl-8-chloro-10,11-dihydro-5H-dibenzo[b,f]azepin-2-yl)picolinamide]
[1]; [10]
  IC50: 7.62 ± 0.797 µM
[2]
  Ki: 3.03 ± 1.26 µM

## OC[C@@H](O)c1cccc(-c2ccc3c(c2)CNc2cc(C(F)(F)F)ccc2O3)n1 [Compound 43, (S)-1-(6-(8-(trifluoromethyl)-10,11-dihydrodibenzo[b,f][1,4]oxazepin-2-yl)pyridin-2-yl)ethane-1,2-diol]
[1]; [10]
  IC50: 2.57 ± 0.059 µM

## CN1Cc2cc(-c3cccc([C@H](O)CO)n3)ccc2Oc2ccc(C(F)(F)F)cc21 [Compound 44, (S)-1-(6-(10-methyl-8-(trifluoromethyl)-10,11-dihydrodibenzo[b,f][1,4]oxazepin-2-yl)pyridin-2-yl)ethane-1,2-diol]
[1]; [11]
  IC50: 0.373 ± 0.047 µM

## CN1Cc2cc(C(F)(F)F)ccc2Oc2ccc(-c3cccc([C@H](O)CO)n3)cc21 [Compound 45, (S)-1-(6-(10-methyl-2-(trifluoromethyl)-10,11-dihydrodibenzo[b,f][1,4]oxazepin-8-yl)pyridin-2-yl)ethane-1,2-diol]
[1]; [10]
  IC50: 1.03 ± 0.067 µM

## CN1c2ccc(-c3cccc([C@H](O)CO)n3)cc2CCc2cc(C(F)(F)F)ccc21 [Compound 46, (S)-1-(6-(5-methyl-8-(trifluoromethyl)-10,11-dihydro-5H-dibenzo[b,f]azepin-2-yl)pyridin-2-yl)ethane-1,2-diol]
[1]; [10]
  IC50: 1.08 ± 0.106 µM
[2]
  Ki: 1.03 ± 0.227 µM

## C[C@H](Nc1cc(C(N)=O)nc(-c2ccc3c(c2)CN(C)c2cc(C(F)(F)F)ccc2O3)n1)C(N)=O [Compound 47, (S)-6-((1-amino-1-oxopropan-2-yl)amino)-2-(10-methyl-8-(trifluoromethyl)-10,11-dihydrodibenzo[b,f][1,4]oxazepin-2-yl)pyrimidine-4-carboxamide]
[1]; [11]
  IC50: 4.79 ± 0.628 µM

## CN1Cc2cc(-c3cccc([C@H](O)[C@@H](O)C(N)=O)n3)ccc2Oc2ccc(C(F)(F)F)cc21 [Compound 48, (2R,3S)-2,3-dihydroxy-3-(6-(10-methyl-8-(trifluoromethyl)-10,11-dihydrodibenzo[b,f][1,4]oxazepin-2-yl)pyridin-2-yl)propanamide]
[1]; [10]
  IC50: 1.05 ± 0.069 µM

## NC(=O)CN1Cc2cc(-c3cccc([C@H](O)CO)n3)ccc2Oc2ccc(C(F)(F)F)cc21 [Compound 49, (S)-2-(2-(6-(1,2-dihydroxyethyl)pyridin-2-yl)-8-(trifluoromethyl)dibenzo-[b,f][1,4]oxazepin-10(11H)-yl)acetamide]
[3]
  Ki: 1800 ± 794 nM

## NC1=N[C@H](O)[C@H]2[C@H]3O[C@]4(O)O[C@@H]([C@@H](O)[C@@]2(N1)[C@@H]4O)[C@]3(O)CO [TTX, tetrodotoxin]
[4]
  IC50: 15 nM
[5]
  IC50: 6 nM
[6]
  IC50: 50000 nM
[7]
  IC50: 1000 nM
[8]
  IC50: 10 nM
[9]
  IC50: 10 nM
